Test results: patent US12384808B2, “Modulators of TNF-α activity” (Forward Therapeutics, Inc., priority 2022, dated 2025)

Each compound was assayed against TNFα (Homo sapiens, UniProt P01375) (assay: TNFα Induced HEK Blue Cellular Assay). Settings: not given.
Sequence of TNFα (P01375 77-233 limits assumed): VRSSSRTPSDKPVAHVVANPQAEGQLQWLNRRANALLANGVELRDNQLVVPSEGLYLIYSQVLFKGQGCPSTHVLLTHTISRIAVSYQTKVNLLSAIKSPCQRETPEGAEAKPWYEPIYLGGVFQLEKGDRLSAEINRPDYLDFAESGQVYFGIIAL
Assay type: cell-based
Summary of the method: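 Reporter cells (10,000/well, DMEM + 10% FBS) with compound (final […] to 0.5 nM) stimulated with 100 pg/ml TNFα, 24 h at 37 °C, 5% CO2. Secreted alkaline phosphatase read at 620 nm; IC50 by 4-parameter logistic fit after background correction against stimulated/unstimulated DMSO controls.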
With [2H]C([2H])([2H])N1C(=O)c2cccc(OC(F)F)c2[C@H]2C[C@@H]1c1nc3ccc(-c4ccc(CP(=O)(OC)OC)cc4)cc3n12 [Example 83, dimethyl (4-((7R,14R)-1-(difluoromethoxy)-6-(methyl-d3)-5-oxo-5,6,7,14-tetrahydro-7,14-methanobenzo[f]benzo[4,5]imidazo[1,2-a][1,4]diazocin-11-yl)benzyl)phosphonate] the IC50 was under 100 nM.

Same assay, conditions: HEK Blue TNFα reporter cells, TNFα 100 pg/ml, 24 hrs at 37° C., secreted alkaline phosphatase (QUANTI-Blue) read at 620 nm; read-out: IC50 value
[2H]C([2H])([2H])N1C(=O)c2cccc(OC)c2[C@H]2C[C@@H]1c1nc3ccc(-c4cc(F)c(P(C)(C)=O)cc4F)cc3n12 [Example 74, (7R,14R)-11-(4-(dimethylphosphoryl)-2,5-difluorophenyl)-1-methoxy-6-(methyl-d3)-6,7-dihydro-7,14-methanobenzo[f]benzo[4,5]imidazo[1,2-a][1,4]diazocin-5(14H)-one] was tested, and the IC50 was 100 to 1000 nM. Work on [2H]C([2H])([2H])N1C(=O)c2cccc(OCC)c2[C@H]2C[C@@H]1c1nc3ccc(-c4cc(F)c(P(C)(C)=O)cc4F)cc3n12 [Example 75, (7R,14R)-11-(4-(dimethylphosphoryl)-2,5-difluorophenyl)-1-ethoxy-6-(methyl-d3)-6,7-dihydro-7,14-methanobenzo[f]benzo[4,5]imidazo[1,2-a][1,4]diazocin-5(14H)-one] yielded an IC50 of under 100 nM. [2H]C([2H])([2H])N1C(=O)c2cccc(OC(F)F)c2[C@H]2C[C@@H]1c1nc3ccc(-c4ccc(CP(C)(C)=O)c(F)c4F)cc3n12 [Example 76, (7R,14R)-1-(difluoromethoxy)-11-(4-((dimethylphosphoryl)methyl)-2,3-difluorophenyl)-6-(methyl-d3)-6,7-dihydro-7,14-methanobenzo[f]benzo[4,5]imidazo[1,2-a][1,4]diazocin-5(14H)-one] was tested, and the IC50 was under 100 nM. CN1C(=O)c2cccc(OC(F)F)c2[C@H]2C[C@@H]1c1nc3ccc(-c4cc(F)c(CP(C)(C)=O)c(F)c4)cc3n12 [Example 77, (7R,14R)-1-(difluoromethoxy)-11-(4-((dimethylphosphoryl)methyl)-3,5-difluorophenyl)-6-methyl-6,7-dihydro-7,14-methanobenzo[f]benzo[4,5]imidazo[1,2-a][1,4]diazocin-5(14H)-one] gave an IC50 of under 100 nM. Compound [2H]C([2H])([2H])N1C(=O)c2cccc(OC(F)F)c2[C@H]2C[C@@H]1c1nc3cc(F)c(-c4ccc(CP(C)(C)=O)c(F)c4)cc3n12 [Example 78, (7R,14R)-1-(difluoromethoxy)-11-(4-((dimethylphosphoryl)methyl)-3-fluorophenyl)-10-fluoro-6-(methyl-d3)-6,7-dihydro-7,14-methanobenzo[f]benzo[4,5]imidazo[1,2-a][1,4]diazocin-5(14H)-one] has an IC50 of under 100 nM. For CN1C(=O)c2cccc(OC(F)F)c2[C@H]2C[C@@H]1c1nc3ccc(-c4ccc(CP(C)(C)=O)c(F)c4)cc3n12 [Example 79, (7R,14R)-1-(difluoromethoxy)-11-(4-((dimethylphosphoryl)methyl)-3-fluorophenyl)-6-methyl-6,7-dihydro-7,14-methanobenzo[f]benzo[4,5]imidazo[1,2-a][1,4]diazocin-5(14H)-one], the IC50 was under 100 nM. CN1C(=O)c2cccc(OC(F)F)c2[C@H]2C[C@@H]1c1nc3ccc(-c4ccc(CP(C)(C)=O)cc4F)cc3n12 [Example 80, (7R,14R)-1-(difluoromethoxy)-11-(4-((dimethylphosphoryl)methyl)-2-fluorophenyl)-6-methyl-6,7-dihydro-7,14-methanobenzo[f]benzo[4,5]imidazo[1,2-a][1,4]diazocin-5(14H)-one] showed an IC50 of under 100 nM. Work on CP(C)(=O)Cc1c(F)cc(-c2ccc3nc4n(c3c2)[C@@H]2C[C@H]4NC(=O)c3cccc(OC(F)F)c32)cc1F [Example 81, (7R,14R)-1-(difluoromethoxy)-11-(4-((dimethylphosphoryl)methyl)-3,5-difluorophenyl)-6,7-dihydro-7,14-methanobenzo[f]benzo[4,5]imidazo[1,2-a][1,4]diazocin-5(14H)-one] yielded an IC50 of under 100 nM. For CP(C)(=O)Cc1cc(F)c(-c2ccc3nc4n(c3c2)[C@@H]2C[C@H]4NC(=O)c3cccc(OC(F)F)c32)cc1F [Example 82, (7R,14R)-1-(difluoromethoxy)-11-(4-((dimethylphosphoryl)methyl)-2,5-difluorophenyl)-6,7-dihydro-7,14-methanobenzo[f]benzo[4,5]imidazo[1,2-a][1,4]diazocin-5(14H)-one], the IC50 was 100 to 1000 nM. For [2H]C([2H])([2H])N1C(=O)c2cccc(OC(F)F)c2[C@H]2C[C@@H]1c1nc3ccc(-c4ccc(C(O)P(C)(C)=O)cc4)cc3n12 (stereo partly drawn) [Example 84, (7R,14R)-1-(difluoromethoxy)-11-(4-((dimethylphosphoryl)(hydroxy)methyl)phenyl)-6-(methyl-d3)-6,7-dihydro-7,14-methanobenzo[f]benzo[4,5]imidazo[1,2-a][1,4]diazocin-5(14H)-one], the IC50 was under 100 nM. For [2H]C([2H])([2H])N1C(=O)c2cccc(OC(F)F)c2[C@H]2C[C@@H]1c1nc3ccc(-c4cnc(P(C)(C)=O)cc4C)cc3n12 [Example 87, (7R,14R)-1-(difluoromethoxy)-11-(6-(dimethylphosphoryl)-4-methylpyridin-3-yl)-6-(methyl-d3)-6,7-dihydro-7,14-methanobenzo[f]benzo[4,5]imidazo[1,2-a][1,4]diazocin-5(14H)-one], the IC50 was 100 to 1000 nM. Compound [2H]C([2H])([2H])N1C(=O)c2cccc(OC(F)F)c2[C@H]2C[C@@H]1c1nc3ccc(-c4cc(F)c(P(C)(C)=O)cc4C)cc3n12 [Example 88, (7R,14R)-1-(difluoromethoxy)-11-(4-(dimethylphosphoryl)-5-fluoro-2-methylphenyl)-6-(methyl-d3)-6,7-dihydro-7,14-methanobenzo[f]benzo[4,5]imidazo[1,2-a][1,4]diazocin-5(14H)-one] has an IC50 of under 100 nM. [2H]C([2H])([2H])N1C(=O)c2cccc(OC(F)F)c2[C@H]2C[C@@H]1c1nc3cc(F)c(-c4cnc(P(C)(C)=O)cc4C)cc3n12 [Example 89, (7R,14R)-1-(difluoromethoxy)-11-(6-(dimethylphosphoryl)-4-methylpyridin-3-yl)-10-fluoro-6-(methyl-d3)-6,7-dihydro-7,14-methanobenzo[f]benzo[4,5]imidazo[1,2-a][1,4]diazocin-5(14H)-one] showed an IC50 of 10000 to 30000 nM. With [2H]C([2H])([2H])N1C(=O)c2cccc(OC(F)F)c2[C@H]2C[C@@H]1c1nc3ccc(-c4ccc(P(C)(C)=O)c(F)c4C)cc3n12 [Example 90, (7R,14R)-1-(difluoromethoxy)-11-(4-(dimethylphosphoryl)-3-fluoro-2-methylphenyl)-6-(methyl-d3)-6,7-dihydro-7,14-methanobenzo[f]benzo[4,5]imidazo[1,2-a][1,4]diazocin-5(14H)-one] the IC50 was under 100 nM. [2H]C([2H])([2H])N1C(=O)c2cccc(OC(F)F)c2[C@H]2C[C@@H]1c1nc3ccc(-c4ccc(P(C)(C)=O)nc4C)cc3n12 [Example 91, (7R,14R)-1-(difluoromethoxy)-11-(6-(dimethylphosphoryl)-2-methylpyridin-3-yl)-6-(methyl-d3)-6,7-dihydro-7,14-methanobenzo[f]benzo[4,5]imidazo[1,2-a][1,4]diazocin-5(14H)-one] was tested, and the IC50 was under 100 nM. For [2H]C([2H])([2H])N1C(=O)c2cccc(OC(F)F)c2[C@H]2C[C@@H]1c1nc3ccc(-c4ccc(P(C)(C)=O)nc4F)cc3n12 [Example 92, (7R,14R)-1-(difluoromethoxy)-11-(6-(dimethylphosphoryl)-2-fluoropyridin-3-yl)-6-(methyl-d3)-6,7-dihydro-7,14-methanobenzo[f]benzo[4,5]imidazo[1,2-a][1,4]diazocin-5(14H)-one], the IC50 was under 100 nM. In the case of [2H]C([2H])([2H])N1C(=O)c2cccc(OC(F)F)c2[C@H]2C[C@@H]1c1nc3ccc(-c4cnc(P(C)(C)=O)cc4Cl)cc3n12 [Example 93, (7R,14R)-11-(4-chloro-6-(dimethylphosphoryl)pyridin-3-yl)-1-(difluoromethoxy)-6-(methyl-d3)-6,7-dihydro-7,14-methanobenzo[f]benzo[4,5]imidazo[1,2-a][1,4]diazocin-5(14H)-one], the IC50 is reported as under 100 nM. [2H]C([2H])([2H])N1C(=O)c2cccc(OC(F)F)c2[C@H]2C[C@@H]1c1nc3ccc(-c4ccc(P(C)(C)=O)nc4Cl)cc3n12 [Example 94, (7R,14R)-11-(2-chloro-6-(dimethylphosphoryl)pyridin-3-yl)-1-(difluoromethoxy)-6-(methyl-d3)-6,7-dihydro-7,14-methanobenzo[f]benzo[4,5]imidazo[1,2-a][1,4]diazocin-5(14H)-one] gave an IC50 of under 100 nM. For [2H]C([2H])([2H])N1C(=O)c2cccc(OC(F)F)c2[C@H]2C[C@@H]1c1nc3ccc(-c4ccc(C(F)(F)P(C)(C)=O)cc4)cc3n12 [Example 95, (7R,14R)-1-(difluoromethoxy)-11-(4-((dimethylphosphoryl)difluoromethyl)phenyl)-6-(methyl-d3)-6,7-dihydro-7,14-methanobenzo[f]benzo[4,5]imidazo[1,2-a][1,4]diazocin-5(14H)-one], the IC50 was under 100 nM. CP(C)(=O)Cc1ccc(-c2ccc3nc4n(c3c2)[C@@H]2C[C@H]4NC(=O)c3cccc(OC(F)F)c32)c(F)c1 [Example 96, (7R,14R)-1-(difluoromethoxy)-11-(4-((dimethylphosphoryl)methyl)-2-fluorophenyl)-6,7-dihydro-7,14-methanobenzo[f]benzo[4,5]imidazo[1,2-a][1,4]diazocin-5(14H)-one] gave an IC50 of 100 to 1000 nM. [2H]C([2H])([2H])N1C(=O)c2cccc(OC(F)F)c2[C@H]2C[C@@H]1c1nc3cc(F)c(-c4ccc(P(C)(C)=O)nc4C)cc3n12 [Example 97, (7R,14R)-1-(difluoromethoxy)-11-(6-(dimethylphosphoryl)-2-methylpyridin-3-yl)-10-fluoro-6-(methyl-d3)-6,7-dihydro-7,14-methanobenzo[f]benzo[4,5]imidazo[1,2-a][1,4]diazocin-5(14H)-one] was tested, and the IC50 was under 100 nM.
